The test deals with recombinant NL4-3 virus (Renilla luciferase in nef, Gag P373S; NLRluc) in MT-2 cells. Briefly: whole plant or invertebrate. Type of test: cell-based, HIV. As to conditions: Renilla, NL43, luciferase activity in cells infected for 4-5 days with NLRluc recombinants, serial dilutions of inhibitor; class symbols (key in Table 1); read-out: EC50. The essentials: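 MT-2 cells in RPMI 1640 with 10% heat-inactivated FBS were infected with the reporter virus, made by transfecting the proviral clone into 293T cells, and cultured 4-5 days with serial inhibitor dilutions. Antiviral activity was quantified from Renilla luciferase activity measured in lysed cells.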
`C=C(C)[C@@H]1CC[C@]2(NCCN3CCN(S(=O)(=O)c4ccc(F)cc4)CC3)CC[C@]3(C)[C@H](CC[C@@H]4[C@@]5(C)CC=C(c6ccc(C(=O)O)cc6)C(C)(C)[C@@H]5CC[C@]43C)[C@@H]12` [Example B50, 4-((1R,3aS,5aR,5bR,7aR,11aS,11bR,13aR,13bR)-3a-((2-(4-((4-fluorophenyl)sulfonyl)piperazin-1-yl)ethyl)amino)-5a,5b,8,8,11a-pentamethyl-1-(prop-1-en-2-yl)-2,3,3a,4,5,5a,5b,6,7,7a,8,11,11a,11b,12,13,13a,13b-octadecahydro-1H-cyclopenta[a]chrysen-9-yl)benzoic acid]: the EC50 was less than 100 nM.
`C=C(C)[C@@H]1CC[C@]2(NCCN3CCN(S(=O)(=O)c4ccc(C(=O)O)cc4)CC3)CC[C@]3(C)[C@H](CC[C@@H]4[C@@]5(C)CC=C(c6ccc(C(=O)O)cc6)C(C)(C)[C@@H]5CC[C@]43C)[C@@H]12` [Example B51, 4-((4-(2-(((1R,3aS,5aR,5bR,7aR,11aS,11bR,13aR,13bR)-9-(4-carboxyphenyl)-5a,5b,8,8,11a-pentamethyl-1-(prop-1-en-2-yl)-2,3,3a,4,5,5a,5b,6,7,7a,8,11,11a,11b,12,13,13a,13b-octadecahydro-1H-cyclopenta[a]chrysen-3a-yl)amino)ethyl)piperazin-1-yl)sulfonyl)benzoic acid]: the EC50 is less than 100 nM.
Regarding `C=C(C)[C@@H]1CC[C@]2(NCCN3CCN(S(=O)(=O)c4ccc5c(c4)OCCO5)CC3)CC[C@]3(C)[C@H](CC[C@@H]4[C@@]5(C)CC=C(c6ccc(C(=O)O)cc6)C(C)(C)[C@@H]5CC[C@]43C)[C@@H]12` [Example B52, 4-((1R,3aS,5aR,5bR,7aR,11aS,11bR,13aR,13bR)-3a-((2-(4-((2,3-dihydrobenzo[b][1,4]dioxin-6-yl)sulfonyl)piperazin-1-yl)ethyl)amino)-5a,5b,8,8,11a-pentamethyl-1-(prop-1-en-2-yl)-2,3,3a,4,5,5a,5b,6,7,7a,8,11,11a,11b,12,13,13a,13b-octadecahydro-1H-cyclopenta[a]chrysen-9-yl)benzoic acid], the half-maximal effective concentration (EC50) was less than 100 nM.
Next, `C=C(C)[C@@H]1CC[C@]2(NCCN3CCN(C(=O)C4CCCCC4)CC3)CC[C@]3(C)[C@H](CC[C@@H]4[C@@]5(C)CC=C(c6ccc(C(=O)O)cc6)C(C)(C)[C@@H]5CC[C@]43C)[C@@H]12` [Example B53, 4-((1R,3aS,5aR,5bR,7aR,11aS,11bR,13aR,13bR)-3a-((2-(4-(cyclohexanecarbonyl)piperazin-1-yl)ethyl)amino)-5a,5b,8,8,11a-pentamethyl-1-(prop-1-en-2-yl)-2,3,3a,4,5,5a,5b,6,7,7a,8,11,11a,11b,12,13,13a,13b-octadecahydro-1H-cyclopenta[a]chrysen-9-yl)benzoic acid]: less than 100 nM; `C=C(C)[C@@H]1CC[C@]2(NCCN3CCN(C(=O)C4CCC4)CC3)CC[C@]3(C)[C@H](CC[C@@H]4[C@@]5(C)CC=C(c6ccc(C(=O)O)cc6)C(C)(C)[C@@H]5CC[C@]43C)[C@@H]12` [Example B54, 4-((1R,3aS,5aR,5bR,7aR,11aS,11bR,13aR,13bR)-3a-((2-(4-(cyclobutanecarbonyl)piperazin-1-yl)ethyl)amino)-5a,5b,8,8,11a-pentamethyl-1-(prop-1-en-2-yl)-2,3,3a,4,5,5a,5b,6,7,7a,8,11,11a,11b,12,13,13a,13b-octadecahydro-1H-cyclopenta[a]chrysen-9-yl)benzoic acid]: less than 100 nM.
In the case of `C=C(C)[C@@H]1CC[C@]2(NCCN3CCN(C(=O)C4CCCC4)CC3)CC[C@]3(C)[C@H](CC[C@@H]4[C@@]5(C)CC=C(c6ccc(C(=O)O)cc6)C(C)(C)[C@@H]5CC[C@]43C)[C@@H]12` [Example B55, 4-((1R,3aS,5aR,5bR,7aR,11aS,11bR,13aR,13bR)-3a-((2-(4-(cyclopentanecarbonyl)piperazin-1-yl)ethyl)amino)-5a,5b,8,8,11a-pentamethyl-1-(prop-1-en-2-yl)-2,3,3a,4,5,5a,5b,6,7,7a,8,11,11a,11b,12,13,13a,13b-octadecahydro-1H-cyclopenta[a]chrysen-9-yl)benzoic acid], the half-maximal effective concentration (EC50) is less than 100 nM.
The same measure for `C=C(C)[C@@H]1CC[C@]2(NCCN3CCN(C(=O)CC4CCCC4)CC3)CC[C@]3(C)[C@H](CC[C@@H]4[C@@]5(C)CC=C(c6ccc(C(=O)O)cc6)C(C)(C)[C@@H]5CC[C@]43C)[C@@H]12` [Example B56, 4-((1R,3aS,5aR,5bR,7aR,11aS,11bR,13aR,13bR)-3a-((2-(4-(2-cyclopentylacetyl)piperazin-1-yl)ethyl)amino)-5a,5b,8,8,11a-pentamethyl-1-(prop-1-en-2-yl)-2,3,3a,4,5,5a,5b,6,7,7a,8,11,11a,11b,12,13,13a,13b-octadecahydro-1H-cyclopenta[a]chrysen-9-yl)benzoic acid]: less than 100 nM; for `C=C(C)[C@@H]1CC[C@]2(NCCN3CCN(C(=O)CC4CCCCC4)CC3)CC[C@]3(C)[C@H](CC[C@@H]4[C@@]5(C)CC=C(c6ccc(C(=O)O)cc6)C(C)(C)[C@@H]5CC[C@]43C)[C@@H]12` [Example B57, 4-((1R,3aS,5aR,5bR,7aR,11aS,11bR,13aR,13bR)-3a-((2-(4-(2-cyclohexylacetyl)piperazin-1-yl)ethyl)amino)-5a,5b,8,8,11a-pentamethyl-1-(prop-1-en-2-yl)-2,3,3a,4,5,5a,5b,6,7,7a,8,11,11a,11b,12,13,13a,13b-octadecahydro-1H-cyclopenta[a]chrysen-9-yl)benzoic acid]: less than 100 nM.
On to `C=C(C)[C@@H]1CC[C@]2(NCCN3CCN(C(=O)C(C)c4ccccc4)CC3)CC[C@]3(C)[C@H](CC[C@@H]4[C@@]5(C)CC=C(c6ccc(C(=O)O)cc6)C(C)(C)[C@@H]5CC[C@]43C)[C@@H]12` (stereo partly drawn) [Example B58, 4-((1R,3aS,5aR,5bR,7aR,11aS,11bR,13aR,13bR)-5a,5b,8,8,11a-pentamethyl-3a-((2-(4-(2-phenylpropanoyl)piperazin-1-yl)ethyl)amino)-1-(prop-1-en-2-yl)-2,3,3a,4,5,5a,5b,6,7,7a,8,11,11a,11b,12,13,13a,13b-octadecahydro-1H-cyclopenta[a]chrysen-9-yl)benzoic acid], for which the EC50 is less than 100 nM.
In the case of `C=C(C)[C@@H]1CC[C@]2(NCCN3CCN(C(=O)CC(C)C)CC3)CC[C@]3(C)[C@H](CC[C@@H]4[C@@]5(C)CC=C(c6ccc(C(=O)O)cc6)C(C)(C)[C@@H]5CC[C@]43C)[C@@H]12` [Example B59, 4-((1R,3aS,5aR,5bR,7aR,11aS,11bR,13aR,13bR)-5a,5b,8,8,11a-pentamethyl-3a-((2-(4-(3-methylbutanoyl)piperazin-1-yl)ethyl)amino)-1-(prop-1-en-2-yl)-2,3,3a,4,5,5a,5b,6,7,7a,8,11,11a,11b,12,13,13a,13b-octadecahydro-1H-cyclopenta[a]chrysen-9-yl)benzoic acid], the concentration giving a half-maximal response (EC50) is less than 100 nM.
Take `C=C(C)[C@@H]1CC[C@]2(NCCN3CCN(C(=O)CC)CC3)CC[C@]3(C)[C@H](CC[C@@H]4[C@@]5(C)CC=C(c6ccc(C(=O)O)cc6)C(C)(C)[C@@H]5CC[C@]43C)[C@@H]12` [Example B60, 4-((1R,3aS,5aR,5bR,7aR,11aS,11bR,13aR,13bR)-5a,5b,8,8,11a-pentamethyl-1-(prop-1-en-2-yl)-3a-((2-(4-propionylpiperazin-1-yl)ethyl)amino)-2,3,3a,4,5,5a,5b,6,7,7a,8,11,11a,11b,12,13,13a,13b-octadecahydro-1H-cyclopenta[a]chrysen-9-yl)benzoic acid]: the EC50 is less than 100 nM.
As to `C=C(C)[C@@H]1CC[C@]2(NCCN3CCN(C(=O)CCC)CC3)CC[C@]3(C)[C@H](CC[C@@H]4[C@@]5(C)CC=C(c6ccc(C(=O)O)cc6)C(C)(C)[C@@H]5CC[C@]43C)[C@@H]12` [Example B61, 4-((1R,3aS,5aR,5bR,7aR,11aS,11bR,13aR,13bR)-3a-((2-(4-butyrylpiperazin-1-yl)ethyl)amino)-5a,5b,8,8,11a-pentamethyl-1-(prop-1-en-2-yl)-2,3,3a,4,5,5a,5b,6,7,7a,8,11,11a,11b,12,13,13a,13b-octadecahydro-1H-cyclopenta[a]chrysen-9-yl)benzoic acid], the EC50 was less than 100 nM.
As to `C=C(C)[C@@H]1CC[C@]2(NCCN3CCN(C(=O)C4CC4)CC3)CC[C@]3(C)[C@H](CC[C@@H]4[C@@]5(C)CC=C(c6ccc(C(=O)O)cc6)C(C)(C)[C@@H]5CC[C@]43C)[C@@H]12` [Example B62, 4-((1R,3aS,5aR,5bR,7aR,11aS,11bR,13aR,13bR)-3a-((2-(4-(cyclopropanecarbonyl)piperazin-1-yl)ethyl)amino)-5a,5b,8,8,11a-pentamethyl-1-(prop-1-en-2-yl)-2,3,3a,4,5,5a,5b,6,7,7a,8,11,11a,11b,12,13,13a,13b-octadecahydro-1H-cyclopenta[a]chrysen-9-yl)benzoic acid], the EC50 was less than 100 nM.
The same measure for `C=C(C)[C@@H]1CC[C@]2(NCCN3CCN(C(=O)C4(C)CC4)CC3)CC[C@]3(C)[C@H](CC[C@@H]4[C@@]5(C)CC=C(c6ccc(C(=O)O)cc6)C(C)(C)[C@@H]5CC[C@]43C)[C@@H]12` [Example B63, 4-((1R,3aS,5aR,5bR,7aR,11aS,11bR,13aR,13bR)-5a,5b,8,8,11a-pentamethyl-3a-((2-(4-(1-methylcyclopropanecarbonyl)piperazin-1-yl)ethyl)amino)-1-(prop-1-en-2-yl)-2,3,3a,4,5,5a,5b,6,7,7a,8,11,11a,11b,12,13,13a,13b-octadecahydro-1H-cyclopenta[a]chrysen-9-yl)benzoic acid]: less than 100 nM.

The values above are taken from US20140343000A1 (priority 2011, published 2014).
